Experimental findings from patent US10889569B2, “Condensed ring group azacyclobutyl triazole derivative, preparation method therefor and use thereof in medicine” (Jiangsu Hengrui Medicine Co., Ltd., priority 2016, dated 2021) are described below.

One data set has as its target human V1aR (Homo sapiens (Human), UniProt P37288). The data set is described as follows: Inhibition activity on human V1aR (Fluo-4 calcium assay, HEK293/human V1aR stably transfected cells). The following applies: vasopressin 3 nM. The class given is cell-based. The procedure: The inhibition effect of the compounds of the present invention on the activity of human V1 aR protein expressed in HEK293/human V1aR stably transfected cells was determined by the following experimental method:
The pcDNA3.1-V1aR plasmid was transferred into HEK293 cells with the Lipofectamine® 3000 transfection reagent; G418 was added on the next day to screen, and monoclonal cell lines were selected.
(§1) HEK293/human V1aR stably transfected cells were inoculated in a 96-well plate with an inoculation density of 25,000 cells/well one day in advance. On the next day, a loading buffer containing Fluo-4 dye was formulated using the reagents in the Fluo-4 NW calcium assay kit, and the culture medium was then removed; 100 μl of the loading buffer containing Fluo-4 dye were added to each well, and the plate was incubated at 37° C. for 30 minutes. After that, the plate was moved to room temperature and equilibrated for 10 minutes. The compounds were formulated at 10^6, 10^5, 10^4, 10^3, 10^2 and 10^1 nM. 1 μl of the compounds in each concentration was added to each well, and the plate was incubated at room temperature for 10 minutes. 50 μl of vasopressin polypeptide (3 nM) were automatically added by the machine, and the values were immediately detected at 494/516 nM by the flexstation 3 microplate reader. IC50 values of the compounds were calculated by Graphpad prism software using fluorescence signals corresponding to different concentrations.
The inhibition activity of the compounds of the present invention on human V1aR was determined by the above test, and the obtained IC50 values are shown in Table 2.

Another data set concerns the target human V1bR (Homo sapiens, UniProt P47901). In words: Inhibition activity on human V1bR (Fluo-4 calcium assay, HEK293/human V1bR pool cells). In kind it is cell-based. The following applies: vasopressin 3 nM. The procedure:
The inhibition effect of the compounds of the present invention on the activity of human V1bR protein expressed in HEK293/human V1bR cells was determined by the following experimental method:
The pcDNA3.1-V1bR plasmid was transferred into HEK293 cells with the Lipofectamine® 3000 transfection reagent; G418 was added on the next day, and the HEK293/human V1bR pool cell lines were obtained.
as §1, with “HEK293/human V1bR pool” for “HEK293/human V1aR stably transfected”, “formulated into” for “formulated at”
The inhibition activity of the compounds of the present invention on human V1bR was determined by the above test, and the obtained IC50 values are shown in Table 3.

The target in the next data set is human V2R (Homo sapiens (Human), UniProt P30518). In words: Inhibition activity on human V2R (cAMP HTRF assay, HEK293/human V2R pool cells). The following applies: vasopressin. In kind it is cell-based. The procedure:
The inhibition effect of the compounds of the present invention on the activity of human V2R protein expressed in HEK293/human V2R cells was determined by the following experimental method:
The pcDNA3.1-V2R plasmid was transferred into HEK293 cells with the Lipofectamine® 3000 transfection reagent; G418 was added on the next day, and the HEK293/human V2R pool cell lines were obtained.
HEK293/human V2R pool cells were dissociated with the cell dissociation solution (enzyme-free), thereby dissociating the cells from the cell culture dish into individual cells. Then the cell solution was blown well, and centrifuged to remove the supernatant. The cells were resuspended in the test buffer 1 (1×HBSS+20 mM HEPES+0.1% BSA) and counted. The cell density was adjusted to 1250 cells/5 μl, i.e., 2.5*10^5/ml.
The compounds were formulated into a series of concentrations of 20 mM, 6.67 mM, 2.22 mM, 0.74 mM, 0.25 mM, 0.08 mM, 27.4 μM, 9.14 μM, 3.05 μM, 1.02 μM, 0.34 μM and 0 μM (DMSO) with pure DMSO. The compounds were then diluted into a 4-fold working concentration solution with the test buffer 2 (test buffer 1+1 mM IBMX).
Agonist: 460 μM vasopressin was used as the mother liquor, which was formulated at 2 μM with DMSO, and then diluted to 0.5 nM with the test buffer 2.
Standards: The first point was 20 μl of a stock solution (2848 nM), which was diluted successively to a total of eleven concentrations in a 4-fold concentration gradient with the test buffer 1 from the second point.
1. The well-mixed cells were added to a 384-well plate (5 μl/well) without changing the tip.
2. The test compounds and positive compound formulated were added (2.5 μl/well), and the tips were changed.
3. The plate was centrifuged at 1000 rpm for 1 min, shaken for 30 sec to mix well, and incubated at room temperature for 30 min.
4. The standard curve wells were added with the test buffer 2 (5 μl/well).
5. The formulated agonist was added (2.5 μl/well), and the tips were changed; the plate was centrifuged at 1000 rpm for 1 min, shaken for 30 sec to mix well, and incubated at room temperature for 30 min.
6. cAMP-d2 (a component in the cAMP dynamic 2 kit) and Anti-cAMP-Eu-Cryptate (a component in the cAMP dynamic 2 kit) were formulated in the dark, which were then mixed well with cAMP lysate (a component in the cAMP dynamic 2 kit) in a ratio of 1:4. Each well was added with the formulated cAMP-d2 solution (5 μl/well), followed by addition of Anti-cAMP-Eu-Cryptate (5 μl/well). The plate was shaken for 30 sec to mix well, and incubated in the dark at room temperature for 1 h.
The HTRF Signals were Read by the PheraStar Multi-Function Microplate Reader.
The data in this test was processed using the data processing software Graphpad Prism.
The inhibition activity of the compounds of the present invention on human V2R was determined by the above test, and the IC50 values obtained are shown in Table 4.
Background: TR-FRET usually uses a lanthanide donor and a delayed reading to cut background.

Another data set addresses human OTR (Homo sapiens, UniProt P30559). In words: Inhibition activity on human OTR (Fluo-4 calcium assay, HEK293/human OTR stably transfected cells). In kind it is cell-based. To be noted: oxytocin 3 nM. The procedure: The inhibition effect of the compounds of the present invention on the activity of human OTR protein expressed in HEK293/human OTR stably transfected cells was determined by the following experimental method:
The pcDNA3.1-hOTR plasmid was transferred into HEK293 cells with the Lipofectamine® 3000 transfection reagent; G418 was added on the next day to screen, and monoclonal cell lines were selected.
as §1, with “OTR” for “V1aR”, “oxytocin” for “vasopressin”
The inhibition activity of the compounds of the present invention on human OTR was determined by the above test, and the obtained IC50 values are shown in Table 1.

Data set [1] in a line: Pharmacokinetics assay in rats after intragastrical administration. In kind it is in vivo, SD rats. To be noted: Sprague-Dawley, rat, plasma, po, 30 mg/kg, intragastric, male rats; for Vd/F: read-out: Apparent distribution volume Vz/F; for AUC: read-out: Area under curve AUC; for CL/F: read-out: Clearance CLz/F; for half-life: read-out: Half-life T1/2 (converted); for Cmax: read-out: Plasma concentration Cmax. The procedure:
Male SD rats were used as test animals. The drug concentration in plasma at different time points was determined by LC/MS/MS method after intragastrical administration of the compounds of Examples 2, 17, 34, 37, 38, 39 and 43 to rats. The pharmacokinetic behavior of the compounds of the present invention was studied and evaluated in rats.
Twenty-one healthy adult male Sprague-Dawley (SD) rats were purchased from Shanghai Jiesijie Laboratory Animal Co., LTD, with Certificate No.: SCXK (Shanghai) 2013-0006, and equally divided into 7 groups (3 rats per group).
A certain amount of the test compound was weighed, and added with 2.5% by volume of DMSO and 97.5% by volume of 10% solutol HS-15 to formulate a […] colorless, clear and transparent solution.
After an overnight fast, SD rats were administered intragastrically the test compounds at an administration dosage of 30.0 mg/kg and an administration volume of 10.0 mL/kg.
The rats were intragastrically administered the compounds of Examples 2, 17, 34, 37, 38, 39 and 43. 0.2 mL of blood was taken from the orbital sinus before administration and at 0.5, 1.0, 2.0, 4.0, 6.0, 8.0, 11.0 and 24.0 hours after administration. The samples were stored in heparinized tubes, and centrifuged for 10 minutes at 4° C. at 3500 rpm to separate the plasma. The plasma samples were stored at −20° C. The rats were fed 2 hours after administration.
The content of the test compounds in the plasma of rats after intragastrical administration of the test compounds at different concentrations was determined: 50 μL of rat plasma at each time after administration was taken, added with 50 μL of the internal standard solution of camptothecin (100 ng/mL) and 150 μL of acetonitrile, vortex-mixed for 5 minutes, and centrifuged for 10 minutes (4000 rpm). 3 μL of the supernatant was taken from the plasma samples for LC/MS/MS analysis.

Where only a bound is given, the exact number is not on record here.

Sequence of human V1aR (P37288 whole entry): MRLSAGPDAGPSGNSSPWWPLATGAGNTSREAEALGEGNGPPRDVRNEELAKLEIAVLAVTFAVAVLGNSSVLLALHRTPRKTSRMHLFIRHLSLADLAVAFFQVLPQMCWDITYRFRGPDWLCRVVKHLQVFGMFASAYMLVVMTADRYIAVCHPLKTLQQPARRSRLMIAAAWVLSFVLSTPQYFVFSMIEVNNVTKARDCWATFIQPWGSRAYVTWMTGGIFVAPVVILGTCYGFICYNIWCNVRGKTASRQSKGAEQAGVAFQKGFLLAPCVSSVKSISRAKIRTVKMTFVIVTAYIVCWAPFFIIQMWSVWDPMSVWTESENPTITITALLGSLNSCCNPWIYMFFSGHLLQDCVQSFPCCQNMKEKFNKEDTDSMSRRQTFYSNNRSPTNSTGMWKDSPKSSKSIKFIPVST
Sequence of human V2R (P30518 whole entry): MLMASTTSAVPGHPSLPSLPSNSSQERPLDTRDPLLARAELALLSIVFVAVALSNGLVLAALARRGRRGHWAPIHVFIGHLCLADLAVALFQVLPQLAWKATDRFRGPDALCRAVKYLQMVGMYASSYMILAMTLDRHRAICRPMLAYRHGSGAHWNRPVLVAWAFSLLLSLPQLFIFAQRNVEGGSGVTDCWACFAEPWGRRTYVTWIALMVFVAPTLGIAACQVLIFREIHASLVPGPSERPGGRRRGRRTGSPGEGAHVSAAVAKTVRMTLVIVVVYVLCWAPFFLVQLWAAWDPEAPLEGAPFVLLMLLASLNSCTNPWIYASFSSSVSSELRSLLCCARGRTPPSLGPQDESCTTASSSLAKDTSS

Turning to `COCc1nnc(N2CC(c3ccnc4cc(F)ccc34)C2)n1-c1ccc(OC)nc1` [Example 1, 7-Fluoro-4-(1-(5-(methoxymethyl)-4-(6-methoxypyridin-3-yl)-4H-1,2,4-triazol-3-yl)azetidin-3-yl)quinoline], the figures for the 50% inhibitory concentration (IC50) on human V1aR, on human V1bR and on human V2R were 18.1 µM, 448 µM and > 100 µM, respectively.

In the case of `COCc1nnc(N2CC(c3coc4cc(F)ccc34)C2)n1-c1ccc(OC)nc1` [Example 11, 5-(3-(3-(6-Fluorobenzofuran-3-yl)azetidin-1-yl)-5-(methoxymethyl)-4H-1,2,4-triazol-4-yl)-2-methoxypyridine], the IC50 on human OTR turned out to be 0.221 µM; at human V1aR, 2.3 µM; at human V2R, 25.7 µM.

On to `COCc1nnc(N2CC(N3C(=O)COc4cc(F)ccc43)C2)n1-c1ccc(OC)nc1` [Example 18, 7-Fluoro-4-(1-(5-(methoxymethyl)-4-(6-methoxypyridin-3-yl)-4H-1,2,4-triazol-3-yl)azetidin-3-yl)-2H-benzo[b][1,4]oxazin-3(4H)-one], for which the IC50 at human V1aR came out at 59.5 µM; at human V1bR, 59.5 µM; on human V2R, 59.4 µM.

On human V2R, `COCc1nnc(N2CC(N3CCc4cc(F)ccc43)C2)n1-c1ccc(OC)nc1` [Example 23, 5-Fluoro-1-(1-(5-(methoxymethyl)-4-(6-methoxypyridin-3-yl)-4H-1,2,4-triazol-3-yl)azetidin-3-yl)indoline] showed an IC50 of 52 µM.

Regarding `COc1ccc(-n2c(C)nnc2N2CC(N3CCOc4cc(F)ccc43)C2)cn1` [Example 32, 7-Fluoro-4-(1-(4-(6-methoxypyridin-3-yl)-5-methyl-4H-1,2,4-triazol-3-yl)azetidin-3-yl)-3,4-dihydro-2H-benzo[b][1,4]oxazine], the results for the IC50 at human V1aR, at human V1bR and against human V2R were 23 µM, 77.2 µM and > 100 µM, respectively.

`COc1ccc(-n2c(N3CC(N4CCCc5cc(F)ccc54)C3)nnc2C(F)(F)F)cn1` [Example 39, 6-Fluoro-1-(1-(4-(6-methoxypyridin-3-yl)-5-(trifluoromethyl)-4H-1,2,4-triazol-3-yl)azetidin-3-yl)-1,2,3,4-tetrahydroquinoline]: the IC50 on human OTR amounted to 0.006 µM. For the same compound, the IC50 on human V1aR was 2 µM. In addition, in data set [1], the Vd/F came out at 35 ± 3.01 L/kg, the exposure (AUC) was 3830 ± 83.7 ng·h/mL, the CL/F worked out at 131 ± 2.85 mL/min/kg and the half-life was 3.09 ± 0.199 h. In addition, the Cmax in data set [1] stood at 1200 ± 68.5 ng/mL. The MRT in data set [1] (read-out: Residence time MRT) was found to be 3.61 ± 0.022 h.

Turning to `COc1ccc(-n2c(N3CC(N4CCOc5cc(F)ccc54)C3)nnc2C(F)(F)F)cn1` [Example 43, 7-Fluoro-4-(1-(4-(6-methoxypyridin-3-yl)-5-(trifluoromethyl)-4H-1,2,4-triazol-3-yl)azetidin-3-yl)-3,4-dihydro-2H-benzo[b][1,4]oxazine], the 50% inhibitory concentration (IC50) on human OTR came out at 0.015 µM. Moreover, the IC50 at human V1aR worked out at 7.9 µM. Further, in data set [1], the Vd/F was 31.1 ± 19.3 L/kg, the AUC is 5560 ± 2330 ng·h/mL, the CL/F was determined as 3.81 ± 0.12 mL/min/kg and the half-life is 3.31 ± 0.23 h. The Cmax in data set [1] worked out at 1580 ± 601 ng/mL.

As a reminder, the IC50 is the midpoint of a concentration-inhibition curve. As usually defined, the AUC is concentration integrated over time. As a reminder, the MRT is the average time that molecules of a dose stay in the body.
